# Source: patent US7589123B2, “Chemical compounds” (Phytopharm PLC, priority 2006, dated 2009)
# Columns and labels:
# [1] = system: α-smooth muscle actin (α-SMA) mRNA; assay: Anti-remodelling activity in human lung fibroblasts (HFL1): TGFβ-induced α-SMA mRNA (Assay 4); type: cell-based; details: HFL1 cells, TGFβ 10 ng/ml, 24 h
# Method in brief: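 Real-time RT-PCR of α-SMA mRNA, GAPDH as reference, measured after 24 h exposure of low-serum-primed HFL1 cells to 10 ng/ml TGFβ with test compounds (3 and 30 μM) in 10% FBS medium. Readout is inhibition of TGFβ-driven α-SMA mRNA overexpression.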
# WI-38 cells = assay: Viability of WI-38 cells, Alamar Blue (Assay 5); type: cell-based, human
# Method in brief: (§1)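 Cell viability was read by Alamar Blue fluorescence (530/590 nm) after 4 h at 37 °C, following an overnight 37 °C incubation of human lung fibroblasts with 1 nM IL-1α and compound (3 or 30 μM) in 10% FBS MEM, pH 7.3. Supernatant PGE2 was measured by radioimmunoassay to derive percent inhibition.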
# [2] = system: histamine-induced contractions in guinea pig ileum; assay: Inhibition of histamine-induced contractions in guinea pig ileum (Assay 3); details: histamine 1.7 μM
# Method in brief: (§2)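 Ileal strips from male Duncan Hartley guinea pigs were held at 1 g tension in 32° C oxygenated Krebs (pH 7.4) with isotonic transducers. After control contractions to 5-HT (2.6 μM) or histamine (1.7 μM), compound at 3 and 30 μM was added, its own effect noted, and agonist re-applied.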
# [3] = system: 5-HT-induced contractions in guinea pig ileum; assay: Inhibition of 5-HT-induced contractions in guinea pig ileum (Assay 3); details: 5-HT 2.6 μM
# Method in brief: as §2
# [4] = system: IL-1α-induced PGE2 release; assay: IL-1α-induced PGE2 release in human diploid lung fibroblasts (WI-38) (Assay 5); type: cell-based; details: WI-38 cells, IL-1α 1 nM, overnight
# Method in brief: as §1
# guinea pig ileum = assay: Effect of test compound alone on guinea pig ileum contraction (Assay 3)
# Description: Duncan Hartley derived male guinea pigs (325±25 g) were suppressed by CO2 overexposure, the abdominal cavity was exposed and ileal segments were removed. Small strips of ileum were suspended in organ baths containing Krebs solution (composition in g/l: NaCl 6.89, KCl 0.35, CaCl2 0.277, KH2PO4 0.163, MgSO4.7H2O 0.296, NaHCO3 2.1 glucose 1.8). The solution was kept at 32° C. and gassed with O2 (95%)-CO2 (5%) to maintain pH at 7.4. Mechanical activity was recorded by means of isotonic transducers. A resting tension of 1 g was applied to muscle strips before being equilibrated for 1 h, prior to test compound addition. Each preparation was washed twice at 15 min intervals during the equilibration.
# Histamine (1.7 μM; approximately EC60-70) or 5-hydroxytryptamine (5-HT, 2.6 μM; approximately EC60-70) was applied for 5 min and the amplitude of the contraction recorded. The histamine or 5-HT was then washed out until the ileal tissue returned to baseline. Five min after returning to baseline test compound (3 and 30 μM) was applied and the amplitude of the contraction (if any) was recorded. In the continuous presence of test compound, histamine or 5-HT was re-applied and the inhibition of the response was recorded.
# TRPV1 receptor [5] = target: T1, TRPV1 receptor (Rattus norvegicus, UniProt O35433); assay: TRPV1 modulation in DRG neurones: CGRP release in absence and presence of capsaicin (Assay 2); type: cell-based; design: The culture used for this experiment contained sensory neurones, Schwann cells and fibroblasts; endogenous in cells; host or cells: primary rat DRG sensory neurone culture (with Schwann cells and fibroblasts); details: for Effect of test compounds on capsaicin (1 μM)-induced CGRP release (%): −ve: inhibition, +ve: potentiation of capsaicin response; for CGRP release (% of capsaicin (1 μM) response): rat DRG sensory neurones, 20 min
# T1 sequence (O35433 whole entry): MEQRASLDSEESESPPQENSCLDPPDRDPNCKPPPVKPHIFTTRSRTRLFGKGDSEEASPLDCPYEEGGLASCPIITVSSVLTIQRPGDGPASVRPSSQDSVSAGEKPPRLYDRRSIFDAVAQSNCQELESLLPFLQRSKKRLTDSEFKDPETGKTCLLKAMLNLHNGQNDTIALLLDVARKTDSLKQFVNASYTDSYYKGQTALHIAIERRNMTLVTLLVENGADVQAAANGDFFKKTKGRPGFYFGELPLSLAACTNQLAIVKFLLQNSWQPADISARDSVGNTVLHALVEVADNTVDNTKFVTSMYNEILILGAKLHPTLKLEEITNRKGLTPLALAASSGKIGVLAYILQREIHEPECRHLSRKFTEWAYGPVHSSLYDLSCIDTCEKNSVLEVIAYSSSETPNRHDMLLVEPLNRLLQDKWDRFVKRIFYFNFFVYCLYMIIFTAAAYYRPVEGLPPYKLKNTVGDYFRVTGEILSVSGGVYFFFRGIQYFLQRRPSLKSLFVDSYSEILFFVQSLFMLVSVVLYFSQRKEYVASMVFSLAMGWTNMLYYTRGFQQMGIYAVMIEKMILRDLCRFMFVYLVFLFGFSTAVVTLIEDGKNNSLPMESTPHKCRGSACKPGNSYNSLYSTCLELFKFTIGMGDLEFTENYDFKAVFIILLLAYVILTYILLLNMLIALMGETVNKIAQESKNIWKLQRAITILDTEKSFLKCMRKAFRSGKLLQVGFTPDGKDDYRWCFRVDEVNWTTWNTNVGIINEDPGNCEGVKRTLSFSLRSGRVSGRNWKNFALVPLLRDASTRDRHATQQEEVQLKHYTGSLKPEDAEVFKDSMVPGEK
# 5-lipoxygenase = target: T2, 5-lipoxygenase (Homo sapiens, UniProt P09917); assay: 5-lipoxygenase activity (LTB4) in human peripheral blood mononuclear leukocytes (Assay 6); type: cell-based; details: human PBMLs, A23187 30 μM
# T2 construct: endogenous in cells; host or cells: human peripheral blood mononuclear leukocytes (PBMLs)
# T2 sequence (P09917 1-674): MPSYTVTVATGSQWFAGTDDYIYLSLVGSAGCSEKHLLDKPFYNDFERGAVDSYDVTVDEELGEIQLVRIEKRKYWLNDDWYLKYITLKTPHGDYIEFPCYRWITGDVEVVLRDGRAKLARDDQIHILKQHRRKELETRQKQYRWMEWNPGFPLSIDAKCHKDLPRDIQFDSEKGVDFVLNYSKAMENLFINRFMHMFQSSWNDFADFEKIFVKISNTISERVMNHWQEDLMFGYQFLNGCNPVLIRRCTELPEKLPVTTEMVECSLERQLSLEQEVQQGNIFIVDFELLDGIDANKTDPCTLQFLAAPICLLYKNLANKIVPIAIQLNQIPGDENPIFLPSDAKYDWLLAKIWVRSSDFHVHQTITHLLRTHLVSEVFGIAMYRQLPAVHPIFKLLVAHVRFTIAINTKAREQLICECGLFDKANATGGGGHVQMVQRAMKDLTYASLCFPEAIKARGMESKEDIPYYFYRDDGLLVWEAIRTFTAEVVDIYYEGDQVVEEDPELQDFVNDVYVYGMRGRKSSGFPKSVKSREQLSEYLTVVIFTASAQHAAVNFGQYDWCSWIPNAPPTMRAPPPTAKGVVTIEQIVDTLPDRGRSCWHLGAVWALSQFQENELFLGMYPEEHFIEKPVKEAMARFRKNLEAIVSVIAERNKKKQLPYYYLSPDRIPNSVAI
# Method in brief: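 LTB4 in supernatant quantified by EIA after 15 min at 37° C. in HBSS, pH 7.4, where Ficoll-isolated human PBMLs (5×10^6) received ionophore A23187 (30 μM) and test compound (3 and 30 μM) or 0.1% DMSO vehicle.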
# TRPV1 receptor [6] = target: T1, TRPV1 receptor; assay: TRPV1 receptor modulation in the rat vas deferens, EFS-induced contraction (Assay 1); details: electrical field stimulation
# Description: Wistar derived male rats (275±25 g) were suppressed by CO2 overexposure. The vas deferens was removed, placed in Krebs solution, pH 7.4 (composition in g/l: NaCl 6.89, KCl 0.35, CaCl2 0.277, KH2PO4 0.163, MgSO4.7H2O 0.296, NaHCO3 2.1 glucose 1.8) and excess fat and connective tissue removed. The portion of the vas deferens closest to the prostate was cut in half and each half was placed under 1 g tension in a 10 ml bath containing Krebs solution at 32° C. The tissue was contracted by electrical field stimulation (EFS; 60% of maximum stimulation, 0.015 Hz, 0.5 ms in duration) and contractile responses were measured.
SMILES,Inhibition of α-SMA mRNA synthesis (%) ([1]; 3 μM),Inhibition of α-SMA mRNA synthesis (%) ([1]; 30 μM),Decrease in cell viability (%) (WI-38 cells; 3 μM),Decrease in cell viability (%) (WI-38 cells; 30 μM),Inhibition of histamine-induced contraction (%) ([2]; 3 μM),Inhibition of histamine-induced contraction (%) ([2]; 30 μM),Inhibition of 5-HT-induced contraction (%) ([3]; 3 μM),Inhibition of 5-HT-induced contraction (%) ([3]; 30 μM),Inhibition of IL-1α-induced PGE2 release (%) ([4]; 3 μM),Inhibition of IL-1α-induced PGE2 release (%) ([4]; 30 μM),Contraction of guinea pig ileum relative to 5-HT-induced contraction (guinea pig ileum; 3 μM),Contraction of guinea pig ileum relative to histamine-induced contraction (guinea pig ileum; 3 μM),Contraction of guinea pig ileum relative to 5-HT-induced contraction (guinea pig ileum; 30 μM),Contraction of guinea pig ileum relative to histamine-induced contraction (guinea pig ileum; 30 μM),Effect of test compounds on capsaicin (1 μM)-induced CGRP release (%) (TRPV1 receptor [5]; 3 μM with capsaicin 1 μM),Effect of test compounds on capsaicin (1 μM)-induced CGRP release (%) (TRPV1 receptor [5]; 30 μM with capsaicin 1 μM),CGRP release (% of capsaicin (1 μM) response) (TRPV1 receptor [5]; test compound alone 3 μM) [%],CGRP release (% of capsaicin (1 μM) response) (TRPV1 receptor [5]; test compound alone 30 μM) [%],Inhibition of 5-LO (%) (5-lipoxygenase; 3 μM),Inhibition of 5-LO (%) (5-lipoxygenase; 30 μM),also measured
"COc1cc(CCC(=O)CC(=O)c2ccc(Cl)cc2Cl)ccc1O [Compound 24, 1-(2,4-Dihlorophenyl)-5-(4-hydroxy-3-methoxyphenyl)pentane-1,3-dione]",8,80,7,26,12,59,5,98,93,100,0,0,0,0,−13,2,92,193,45,97,–
"CCC(=O)CC(=O)CCc1ccc(O)c(OC)c1 [3-gingerdione, reference compound]",13,24,4,5,5,14,0,5,61,99,0,0,0,0,−37,−43,17,18,−5,73,–
"COc1cc(CCC(=O)CC(=O)c2ccc(Cl)c(Cl)c2)ccc1O [Compound 23, 1-(3,4-Dihlorophenyl)-5-(4-hydroxy-3-methoxyphenyl)pentane-1,3-dione]",13,79,6,16,8,37,11,25,84,100,0,0,0,0,−2,47,84,242,63,98,–
COc1cc(CCC(=O)CC(=O)C(C)C)ccc1O [Compound 1],12,34,3,−10,0,11,0,20,68,101,0,0,0,0,−36,−24,26,41,26,63,Inhibition of EFS response relative to capsaicin (TRPV1 receptor [6]): 27%
